Measurements from PubChem BioAssay (NCI).
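Results reflect a 48-hour exposure of cells in 96-well plates to compound at five concentrations. At the TGI there is no net growth.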

How the values were obtained:
Assay in all cases: growth of human tumour cells (NCI), 48 h
[1] = system: 786-0 renal
[2] = system: A498 renal
[3] = system: BT-549 breast
[4] = system: CAKI-1 renal
[5] = system: CCRF-CEM leukemia
[6] = system: COLO 205 colon
[7] = system: DU-145 prostate
[8] = system: EKVX NSCLC
[9] = system: HCC-2998 colon
[10] = system: HCT-116 colon
[11] = system: HCT-15 colon
[12] = system: HOP-62 NSCLC
[13] = system: HOP-92 NSCLC
[14] = system: HS 578T breast
[15] = system: HT29 colon
[16] = system: IGROV1 ovarian
[17] = system: K-562 leukemia
[18] = system: KM12 colon
[19] = system: LOX IMVI melanoma
[20] = system: M14 melanoma
[21] = system: MALME-3M melanoma
[22] = system: MCF7 breast
[23] = system: MDA-MB-231 breast
[24] = system: MDA-MB-435
[25] = system: MDA-N
[26] = system: NCI-H226 lung
[27] = system: NCI-H23 lung
[28] = system: NCI-H460 lung
[29] = system: NCI-H522 lung
[30] = system: NCI/ADR-RES ovarian
[31] = system: OVCAR-3 ovarian
[32] = system: OVCAR-4 ovarian
[33] = system: OVCAR-5 ovarian
[34] = system: PC-3 prostate
[35] = system: RPMI-8226 leukemia
[36] = system: RXF 393 renal
[37] = system: SF-268 CNS
[38] = system: SF-295 CNS
[39] = system: SF-539 CNS
[40] = system: SK-MEL-2 melanoma
[41] = system: SK-MEL-28 melanoma
[42] = system: SK-MEL-5 melanoma
[43] = system: SK-OV-3 ovarian
[44] = system: SN12C renal
[45] = system: SNB-75 CNS
[46] = system: SR leukemia
[47] = system: SW-620 colon
[48] = system: T-47D breast
[49] = system: TK-10 renal
[50] = system: UACC-257 melanoma
[51] = system: UACC-62 melanoma
[52] = system: UO-31 renal
[53] = system: A549 NSCLC
[54] = system: ACHN renal
[55] = system: HL-60(TB) leukemia
[56] = system: MOLT-4 leukemia
[57] = system: OVCAR-8 ovarian
[58] = system: SNB-19 CNS
[59] = system: U251 CNS

Nc1cc2c(c3ccccc13)C(CCl)CN2C(=O)c1cc2cc(NC(=O)Nc3ccc4[nH]c(C(=O)N5CC(CCl)c6c5cc(N)c5ccccc65)cc4c3)ccc2[nH]1 (stereo not given)
TGI [1]: 0.258 µM
TGI [2]: 0.832 µM
TGI [3]: 4.53 µM
TGI [4]: 0.444 µM
TGI [5]: 2.98 µM
TGI [6]: 2.07 µM
TGI [7]: 0.704 µM
TGI [8]: 6.38 µM
TGI [9]: 1.19 µM
TGI [10]: 1.13 µM
TGI [11]: > 32.3 µM
TGI [12]: 1.55 µM
TGI [13]: > 100 µM
TGI [14]: 12.3 µM
TGI [15]: 2.01 µM
TGI [16]: 1.4 µM
TGI [17]: > 100 µM
TGI [18]: 3.22 µM
TGI [19]: 12 µM
TGI [20]: 0.644 µM
TGI [21]: 2.03 µM
TGI [22]: 1.4 µM
TGI [23]: 2.16 µM
TGI [24]: 4.33 µM
TGI [25]: 2.49 µM
TGI [26]: 1.81 µM
TGI [27]: 1.02 µM
TGI [28]: > 100 µM
TGI [29]: 1.42 µM
TGI [30]: 39.4 µM
TGI [31]: 2.41 µM
TGI [32]: > 100 µM
TGI [33]: 4.22 µM
TGI [34]: 12.8 µM
TGI [35]: > 23.3 µM
TGI [36]: 0.248 µM
TGI [37]: 8.15 µM
TGI [38]: 2.99 µM
TGI [39]: 1.11 µM
TGI [40]: 2.17 µM
TGI [41]: 2.52 µM
TGI [42]: 0.341 µM
TGI [43]: > 24.3 µM
TGI [44]: > 100 µM
TGI [45]: 0.73 µM
TGI [46]: 1.13 µM
TGI [47]: 2.07 µM
TGI [48]: 1.34 µM
TGI [49]: 3.75 µM
TGI [50]: 3.24 µM
TGI [51]: 1.05 µM
TGI [52]: 1.4 µM

O=[N+]([O-])c1cccc(/C=N/NC2=CS(=O)(=O)C=C2)c1
TGI [1]: > 100 µM
TGI [2]: > 100 µM
TGI [53]: > 100 µM
TGI [54]: > 100 µM
TGI [3]: > 100 µM
TGI [4]: > 100 µM
TGI [5]: > 100 µM
TGI [6]: > 100 µM
TGI [7]: > 100 µM
TGI [8]: > 100 µM
TGI [10]: > 100 µM
TGI [11]: > 100 µM
TGI [55]: > 100 µM
TGI [12]: > 100 µM
TGI [13]: > 100 µM
TGI [14]: > 100 µM
TGI [15]: > 100 µM
TGI [16]: > 100 µM
TGI [17]: > 100 µM
TGI [18]: > 100 µM
TGI [19]: > 100 µM
TGI [20]: > 100 µM
TGI [21]: > 100 µM
TGI [22]: > 100 µM
TGI [23]: > 100 µM
TGI [24]: > 100 µM
TGI [25]: > 100 µM
TGI [56]: > 100 µM
TGI [26]: > 100 µM
TGI [27]: > 100 µM
TGI [28]: > 100 µM
TGI [29]: > 100 µM
TGI [30]: > 100 µM
TGI [31]: > 100 µM
TGI [32]: > 100 µM
TGI [33]: > 100 µM
TGI [57]: > 100 µM
TGI [34]: > 100 µM
TGI [35]: > 100 µM
TGI [36]: > 100 µM
TGI [37]: > 100 µM
TGI [38]: > 100 µM
TGI [39]: > 100 µM
TGI [40]: > 100 µM
TGI [41]: > 100 µM
TGI [42]: > 100 µM
TGI [43]: > 100 µM
TGI [44]: > 100 µM
TGI [58]: > 100 µM
TGI [45]: > 100 µM
TGI [46]: > 100 µM
TGI [47]: > 100 µM
TGI [48]: > 100 µM
TGI [49]: > 100 µM
TGI [59]: > 100 µM
TGI [50]: > 100 µM
TGI [51]: > 100 µM
TGI [52]: > 100 µM
